Test results published in US9090621B2, “Tyrosine kinase inhibitors” (Principia Biopharma Inc., priority 2013, dated 2015).

tested on: protein target; experiment: Reversibility of Binding (compound in solution before and after perturbation of the target, HPLC-MS/MS); conditions: after denaturation with 5 M guanidine hydrochloride and digestion with trypsin
Method: The following approach was developed to differentiate compounds that form irreversible bonds with their targets, such as acrylamide compounds, from compound that bind reversibly. […] The reactions were then treated with perturbations including both denaturation with 5 M guanidine hydrochloride and digestion with trypsin, disrupting proper folding of the target. […] The concentration of compound in solution was assessed both preceding and following perturbation using high performance liquid chromatography (HPLC) coupled to tandem mass spectrometry.
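Wherever IC50 is given: Read-out is the quantity of phosphorylated substrate product formed, and IC50 reflects inhibition of Btk kinase activity.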

SMILES	Compound in solution in the denatured or digested state?
N#CC(=CC1CC1)C(=O)N1CCC[C@@H](n2cc(-c3ccc(Oc4ccccc4)cc3)c3c(N)ncnc32)C1 [Example 27, (R)-2-(3-(4-amino-5-(4-phenoxyphenyl)-7H-pyrrolo[2,3-d]pyrimidin-7-yl)piperidine-1-carbonyl)-3-cyclopropylacrylonitrile]	yes
C=CC(=O)N1CCC[C@@H](n2nc(-c3ccc(Oc4ccccc4)cc3)c3c(N)ncnc32)C1 [acrylamide-containing compound 1, reference compound]	depleted from solution in both the native and perturbed state

same assay, conditions: protein target at a higher concentration than the compound; before perturbation

SMILES	Compound in solution in the native state?
N#CC(=CC1CC1)C(=O)N1CCC[C@@H](n2cc(-c3ccc(Oc4ccccc4)cc3)c3c(N)ncnc32)C1 [Example 27, (R)-2-(3-(4-amino-5-(4-phenoxyphenyl)-7H-pyrrolo[2,3-d]pyrimidin-7-yl)piperidine-1-carbonyl)-3-cyclopropylacrylonitrile]	depleted in the folded state and no
C=CC(=O)N1CCC[C@@H](n2nc(-c3ccc(Oc4ccccc4)cc3)c3c(N)ncnc32)C1 [acrylamide-containing compound 1, reference compound]	depleted from solution in both the native and perturbed state

target: T1, human recombinant Btk (Homo sapiens (Human), UniProt Q06187); experiment: not given; conditions: Caliper-based kinase assay; human recombinant Btk 2 nM, ATP 40 μM, peptide substrate 1 μM, room temperature 3 h
T1 sequence (Q06187 whole entry): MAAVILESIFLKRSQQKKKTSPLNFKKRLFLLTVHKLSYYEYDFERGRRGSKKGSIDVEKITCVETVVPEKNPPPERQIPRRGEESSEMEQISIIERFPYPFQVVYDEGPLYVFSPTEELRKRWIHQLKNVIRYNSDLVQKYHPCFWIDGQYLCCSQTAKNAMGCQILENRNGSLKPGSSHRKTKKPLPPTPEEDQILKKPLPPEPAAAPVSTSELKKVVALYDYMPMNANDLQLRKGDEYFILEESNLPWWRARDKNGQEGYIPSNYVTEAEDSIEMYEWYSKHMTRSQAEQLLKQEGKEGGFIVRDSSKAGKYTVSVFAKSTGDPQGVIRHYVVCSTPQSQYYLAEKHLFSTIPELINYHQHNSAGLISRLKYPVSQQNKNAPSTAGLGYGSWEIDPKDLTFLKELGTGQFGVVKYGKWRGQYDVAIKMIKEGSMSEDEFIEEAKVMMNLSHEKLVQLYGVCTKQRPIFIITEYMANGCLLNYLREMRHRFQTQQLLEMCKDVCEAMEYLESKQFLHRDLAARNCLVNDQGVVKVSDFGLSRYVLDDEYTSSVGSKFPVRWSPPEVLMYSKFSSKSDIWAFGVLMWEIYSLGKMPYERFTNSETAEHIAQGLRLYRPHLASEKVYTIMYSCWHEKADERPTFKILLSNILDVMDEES

SMILES	IC50 [nM]
CC(C)(C=C(C#N)C(=O)N1CCC[C@@H](n2nc(-c3ccc(Oc4cccc(F)c4F)cc3F)c3c(N)ncnc32)C1)N1CCOCC1 [Example 162A, (R)-2-(3-(4-amino-3-(4-(2,3-difluorophenoxy)-2-fluorophenyl)-1H-pyrazolo[3,4-d]pyrimidin-1-yl)piperidine-1-carbonyl)-4-methyl-4-morpholinopent-2-enenitrile]	0.9
CC(C)(C)C=C(C#N)C(=O)NC1CCC(n2nc(-c3ccc(NC(=O)c4ccc(C(F)(F)F)cc4)cc3)c3c(N)ncnc32)CC1 (centres unmarked) [10 (Cpd Table 2), N-(4-(4-amino-1-((1s,4s)-4-(2-cyano-4,4-dimethylpent-2-enamido)cyclohexyl)-1H-pyrazolo[3,4-d]pyrimidin-3-yl)phenyl)-4-(trifluoromethyl)benzamide]	> 1000
CC(C)(CNC(=O)C(C#N)=CC1CC1)Cn1nc(-c2ccc(Oc3ccccc3)cc2)c2c(N)ncnc21 [Example 67, N-(3-(4-amino-3-(4-phenoxyphenyl)-1H-pyrazolo[3,4-d]pyrimidin-1-yl)-2,2-dimethylpropyl)-2-cyano-3-cyclopropylacrylamide]	27
CC(C)(C)C=C(C#N)C(=O)N1CCC[C@@H]1Cn1cc(-c2ccc(Oc3cccc(F)c3F)cc2)c2c(N)ncnc21 [Example 173B]	34
NC(=O)C(=CC1CC1)C(=O)N1CCC[C@@H](n2nc(-c3ccc(Oc4cccc(F)c4)cc3)c3c(N)ncnc32)C1 [Example 15A, (R)-2-(3-(4-amino-3-(4-(3-fluorophenoxy)phenyl)-1H-pyrazolo[3,4-d]pyrimidin-1-yl)piperidine-1-carbonyl)-3-cyclopropylacrylamide]	1.7
CC(C)(C)C=C(C#N)C(=O)NC1CCC(n2nc(-c3ccc(NC(=O)c4ccc(C(F)(F)F)cc4)cc3)c3c(N)ncnc32)CC1 (centres unmarked) [8 (Cpd Table 2), N-(4-(4-amino-1-((1r,4r)-4-(2-cyano-4,4-dimethylpent-2-enamido)cyclohexyl)-1H-pyrazolo[3,4-d]pyrimidin-3-yl)phenyl)-4-(trifluoromethyl)benzamide]	> 1000
CCOC(C)(C)C=C(C#N)C(=O)N1CCC[C@@H](n2nc(-c3ccc(Oc4cccc(F)c4F)cc3F)c3c(N)ncnc32)C1 [Example 156A, (R)-2-(3-(4-amino-3-(4-(2,3-difluorophenoxy)-2-fluorophenyl)-1H-pyrazolo[3,4-d]pyrimidin-1-yl)piperidine-1-carbonyl)-4-ethoxy-4-methylpent-2-enenitrile]	7.3
NC(=O)C(=CC1CC1)C(=O)N1CCC[C@@H](n2nc(-c3ccc(Oc4c(F)cccc4F)cc3)c3c(N)ncnc32)C1 [Example 36A, (R)-2-(3-(4-amino-3-(4-(2,6-difluorophenoxy)phenyl)-1H-pyrazolo[3,4-d]pyrimidin-1-yl)piperidine-1-carbonyl)-3 cyclopropylacrylamide]	4.3
CC(C)(N)C=C(C#N)C(=O)N1CCC[C@H]1Cn1nc(-c2ccc(Oc3cccc(F)c3)cc2F)c2c(N)ncnc21 [Example 72B, (S)-4-amino-2-(2-((4-amino-3-(2-fluoro-4-(3-fluorophenoxy)phenyl)-1H-pyrazolo[3,4-d]pyrimidin-1-yl)methyl)pyrrolidine-1-carbonyl)-4-methylpent-2-enenitrile]	28

The remaining lines, values ahead:

IC50 [nM]	SMILES
0.4	CCNC(C)(C)C=C(C#N)C(=O)N1CCCC1Cn1nc(-c2ccc(Oc3ccccc3)cc2F)c2c(N)ncnc21 (stereo in doubt) [Example 85A, (S)-2-(2-((4-amino-3-(2-fluoro-4-phenoxyphenyl)-1H-pyrazolo[3,4-d]pyrimidin-1-yl)methyl)pyrrolidine-1-carbonyl)-4-(ethylamino)-4-methylpent-2-enenitrile]
17.2	CCNC(C)(C)C=C(C#N)C(=O)N1CCCC1Cn1nc(-c2ccc(Oc3ccccc3)cc2F)c2c(N)ncnc21 (stereo in doubt) [Example 85B, (R)-2-(2-((4-amino-3-(2-fluoro-4-phenoxyphenyl)-1H-pyrazolo[3,4-d]pyrimidin-1-yl)methyl)pyrrolidine-1-carbonyl)-4-(ethylamino)-4-methylpent-2-enenitrile]
2.6	N#CC(=CC1CC1)C(=O)N1CCCC1Cn1nc(-c2ccc(Oc3ccccc3)cc2)c2c(N)ncnc21 (centres unmarked) [Example 22B]
6.2	N#CC(=CC1CC1)C(=O)N1CCC[C@@H]1Cn1nc(-c2ccc(Oc3cccc(F)c3)cc2)c2c(N)ncnc21 [Example 24A, (R)-2-(2-((4-amino-3-(4-(3-fluorophenoxy)phenyl)-1H-pyrazolo[3,4-d]pyrimidin-1-yl)methyl)pyrrolidine-1-carbonyl)-3-cyclopropylacrylonitrile]
26	N#CC(=CC1CC1)C(=O)N1CCC[C@H]1Cn1cc(-c2ccc(Oc3ccccc3)cc2F)c2c(N)ncnc21 [Example 59B, (S)-2-(2-((4-amino-5-(2-fluoro-4-phenoxyphenyl)-7H-pyrrolo[2,3-d]pyrimidin-7-yl)methyl)pyrrolidine-1-carbonyl)-3-cyclopropylacrylonitrile]
32.5	CC1(C=C(C#N)C(=O)N2CCC[C@H]2Cn2nc(-c3ccc(Oc4ccccc4)cc3F)c3c(N)ncnc32)COC1 [Example 197B]

target: T1, human recombinant Btk; experiment: biochemical; conditions: not given

SMILES	IC50 [nM]
C[C@@H](Cn1nc(-c2ccc(Oc3ccccc3)cc2F)c2c(N)ncnc21)NC(=O)C(C#N)=CC(C)(C)N(C)C [Example 185B, (S)-N-(1-(4-amino-3-(2-fluoro-4-phenoxyphenyl)-1H-pyrazolo[3,4-d]pyrimidin-1-yl)propan-2-yl)-2-cyano-4-(dimethylamino)-4-methylpent-2-enamide]	11
CC(C)C=C(C#N)C(=O)N1CCC[C@H]1Cn1nc(-c2ccc(Oc3cccc(F)c3F)cc2)c2c(N)ncnc21 [Example 76B, (S)-2-(2-((4-amino-3-(4-(2,3-difluorophenoxy)phenyl)-1H-pyrazolo[3,4-d]pyrimidin-1-yl)methyl)pyrrolidine-1-carbonyl)-4-methylpent-2-enenitrile]	7
CC(C)(C)C=C(C#N)C(=O)N1CCC[C@@H](n2nc(-c3ccc(Oc4ccccc4)cc3)c3c(N)ncnc32)C1 [29 A, (R)-2-(3-(4-amino-3-(4-phenoxyphenyl)-1H-pyrazolo[3,4-d]pyrimidin-1-yl)piperidine-1-carbonyl)-4,4-dimethylpent-2-enenitrile]	2.7
CC(C)C=C(C#N)C(=O)N1CCC[C@H]1Cn1nc(-c2ccc(Oc3c(F)cccc3F)cc2)c2c(N)ncnc21 [Example 75B, (S)-2-(2-((4-amino-3-(4-(2,6-difluorophenoxy)phenyl)-1H-pyrazolo[3,4-d]pyrimidin-1-yl)methyl)pyrrolidine-1-carbonyl)-4-methylpent-2-enenitrile]	100

Results, then the molecule that gave them:

IC50 [nM]	SMILES
5	Cc1cc(Oc2ccccc2)ccc1-c1nn(C[C@H]2CCCN2C(=O)C(C#N)=CC2CC2)c2ncnc(N)c12 [Example 69A, (R)-2-(2-((4-amino-3-(2-methyl-4-phenoxyphenyl)-1H-pyrazolo[3,4-d]pyrimidin-1-yl)methyl)pyrrolidine-1-carbonyl)-3-cyclopropylacrylonitrile]
1.7	N#CC(=CC1CC1)C(=O)N1CCC[C@@H]1Cn1nc(-c2ccc(Oc3c(F)cccc3F)cc2)c2c(N)ncnc21 [Example 32A, (R)-2-(2-((4-amino-3-(4-(2,6-difluorophenoxy)phenyl)-1H-pyrazolo[3,4-d]pyrimidin-1-yl)methyl)pyrrolidine-1-carbonyl)-3-cyclopropylacrylonitrile]
3.2	N#CC(=CC1CC1)C(=O)N1CCC[C@@H]1Cn1nc(-c2ccc(Oc3cc(F)cc(F)c3)cc2F)c2c(N)ncnc21 [Example 41A, (R)-2-(2-((4-amino-3-(2-fluoro-4-(3,5-difluorophenoxy)phenyl)-1H-pyrazolo[3,4-d]pyrimidin-1-yl)methyl)pyrrolidine-1-carbonyl)-3-cyclopropylacrylonitrile]
9.6	N#CC(=CC1CC1)C(=O)N1CCC[C@@H]1Cn1nc(-c2ccc(Oc3cc(F)cc(F)c3)cc2)c2c(N)ncnc21 [Example 25A, (R)-2-(2-((4-amino-3-(4-(3,5-difluorophenoxy)phenyl)-1H-pyrazolo[3,4-d]pyrimidin-1-yl)methyl)pyrrolidine-1-carbonyl)-3-cyclopropylacrylonitrile]
140	N#CC(=CC1CC1)C(=O)N1CCC[C@H]1Cn1nc(-c2ccc(Oc3cc(F)cc(F)c3)cc2)c2c(N)ncnc21 [Example 25B, (S)-2-(2-((4-amino-3-(4-(3,5-difluorophenoxy)phenyl)-1H-pyrazolo[3,4-d]pyrimidin-1-yl)methyl)pyrrolidine-1-carbonyl)-3-cyclopropylacrylonitrile]
11	CC(C)C=C(C#N)C(=O)N1CCC[C@H]1Cn1nc(-c2ccc(Oc3cccc(F)c3)cc2F)c2c(N)ncnc21 [Example 73B, (S)-2-(2-((4-amino-3-(2-fluoro-4-(3-fluorophenoxy)phenyl)-1H-pyrazolo[3,4-d]pyrimidin-1-yl)methyl)pyrrolidine-1-carbonyl)-4-methylpent-2-enenitrile]
